Structures can show the parent of a compound that is named as a salt.
Experiment: Thermal stability at 110° C. in an open flask (HPLC purity)
Format: physicochemical
Conditions: 110° C., open flask
Protocol: The thermal stability of the delta form at 110° C. in an open flask was compared to that of forms from the prior art.

Structure (SMILES)	Thermal stability compared to the other known forms
CCC[C@H](N[C@@H](C)C(=O)N1[C@H](C(=O)O)C[C@@H]2CCCC[C@@H]21)C(=O)OCC [perindopril L-arginine salt]	improved thermal stability

Same assay, conditions: 76 hours at 110° C., open flask

Structure (SMILES)	HPLC purity (%)
CCC[C@H](N[C@@H](C)C(=O)N1[C@H](C(=O)O)C[C@@H]2CCCC[C@@H]21)C(=O)OCC [perindopril L-arginine salt]	99.5%
CCC[C@H](N[C@@H](C)C(=O)N1[C@H](C(=O)O)C[C@@H]2CCCC[C@@H]21)C(=O)OCC.N=C(N)NCCC[C@H](N)C(=O)O [γ form according to WO 2009/157018]	93.4%
CCC[C@H](N[C@@H](C)C(=O)N1[C@H](C(=O)O)C[C@@H]2CCCC[C@@H]21)C(=O)OCC.N=C(N)NCCC[C@H](N)C(=O)O [β form according to EP 2 016 051]	98.3%
CCC[C@H](N[C@@H](C)C(=O)N1[C@H](C(=O)O)C[C@@H]2CCCC[C@@H]21)C(=O)OCC.N=C(N)NCCC[C@H](N)C(=O)O [α form according to EP 1 989 182]	98.8%
CCC[C@H](N[C@@H](C)C(=O)N1[C@H](C(=O)O)C[C@@H]2CCCC[C@@H]21)C(=O)OCC.N=C(N)NCCC[C@H](N)C(=O)O [Form obtained according to the process of SI 23001]	86.9%

Same assay, conditions: t = 0, before heating (baseline of the thermal stability test)

Structure (SMILES)	HPLC purity (%)
CCC[C@H](N[C@@H](C)C(=O)N1[C@H](C(=O)O)C[C@@H]2CCCC[C@@H]21)C(=O)OCC [perindopril L-arginine salt]	99.7%
CCC[C@H](N[C@@H](C)C(=O)N1[C@H](C(=O)O)C[C@@H]2CCCC[C@@H]21)C(=O)OCC.N=C(N)NCCC[C@H](N)C(=O)O [γ form according to WO 2009/157018]	99.7%
CCC[C@H](N[C@@H](C)C(=O)N1[C@H](C(=O)O)C[C@@H]2CCCC[C@@H]21)C(=O)OCC.N=C(N)NCCC[C@H](N)C(=O)O [β form according to EP 2 016 051]	99.6%
CCC[C@H](N[C@@H](C)C(=O)N1[C@H](C(=O)O)C[C@@H]2CCCC[C@@H]21)C(=O)OCC.N=C(N)NCCC[C@H](N)C(=O)O [α form according to EP 1 989 182]	99.8%
CCC[C@H](N[C@@H](C)C(=O)N1[C@H](C(=O)O)C[C@@H]2CCCC[C@@H]21)C(=O)OCC.N=C(N)NCCC[C@H](N)C(=O)O [Form obtained according to the process of SI 23001]	99.1%

Reference: US8835652B2, “Delta crystalline form of the arginine salt of perindopril, a process for its preparation, and pharmaceutical compositions containing it” (Les Laboratoires Servier, priority 2012, dated 2014)
